Assay results from the supplement of paper PMC10627819.

What was measured:
[1] = test system: B. subtilis 168; experiment: fitness (endpoint OD595 vs no drug) (fraction); higher = more growth
In short: (§1)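 Each well of a 384-well plate received 30 µl of culture at OD595 0.01, or 55 µl for S. pneumoniae. TSB, LB Lennox or CY served as media at 37 °C. OD595 was taken every 30 min for 14 h and corrected by subtracting the first reading. Fitness is the optical density at stationary-phase entry divided by the robust mean of no-drug controls, capped at 1.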

[2] = test system: S. aureus DSM 20231; experiment: as above
In short: as §1

[3] = test system: S. aureus Newman; experiment: as above
In short: as §1

[4] = test system: S. pneumoniae D39V; experiment: as above
In short: as §1

[5] = test system: B. subtilis 168; experiment: Bliss interaction score (quartile over a dose matrix) (fitness difference); higher = more antagonism (negative = synergy)
In short: (§2)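 Each plate was normalised to the robust mean of its own no-drug wells, using OD595 at entry into stationary phase, with values capped at 1. This normalised growth is the fitness value. The Bliss score is the difference between observed and product-expected fitness, with single-drug fitness inferred from the combination data and quartiles taken over technical, biological and donor/recipient replicates.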

[6] = test system: S. aureus DSM 20231; experiment: as above
In short: as §2

[7] = test system: S. aureus Newman; experiment: as above
In short: as §2

[8] = test system: S. pneumoniae D39V; experiment: as above
In short: as §2
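Throughout, for Bliss interaction score (quartile over a dose matrix): first quartile when negative (synergy) and third quartile when positive (antagonism).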

COc1c(N2C[C@@H]3CCCN[C@@H]3C2)c(F)cc2c(=O)c(C(=O)O)cn(C3CC3)c12 [Moxifloxacin] + CN(N=O)C(=O)N[C@@H](C=O)[C@@H](O)[C@H](O)[C@H](O)CO [Streptozotocin]
fitness
Settings	partner 0.15 µg/mL	partner 0.3 µg/mL	partner 0.6 µg/mL	partner 1.2 µg/mL	partner 2.4 µg/mL	partner 4.8 µg/mL
[1], first compound 0.0312 µg/mL	0.0402	0.04	0.0108	–	–	–
[1], first compound 0.0625 µg/mL	0.0394	0.0297	0.0273	–	–	–
[1], first compound 0.125 µg/mL	0.0412	0.0464	0.0221	–	–	–
[2], first compound 0.0075 µg/mL	0.75	0.715	0.614	–	–	–
[2], first compound 0.015 µg/mL	0.691	0.681	0.59	–	–	–
[2], first compound 0.03 µg/mL	0.611	0.632	0.533	–	–	–
[3], first compound 0.0075 µg/mL	0.69	0.635	0.392	–	–	–
[3], first compound 0.015 µg/mL	0.453	0.378	0.106	–	–	–
[3], first compound 0.03 µg/mL	0.0433	0.0331	0.0187	–	–	–
[4], first compound 0.005 µg/mL	–	–	–	0.94	0.951	0.943
[4], first compound 0.01 µg/mL	–	–	–	0.951	0.95	0.928
[4], first compound 0.02 µg/mL	–	–	–	0.919	0.875	0.895

fitness, one replicate
Settings	partner 0.15 µg/mL	partner 0.3 µg/mL	partner 0.6 µg/mL	partner 1.2 µg/mL	partner 2.4 µg/mL	partner 4.8 µg/mL
[1], first compound 2 µg/mL	0.0199	0.0131	0	–	–	–
[1], first compound 4 µg/mL	0.0208	0.0015	0.0018	–	–	–
[1], first compound 8 µg/mL	0.0288	0.0107	0.0248	–	–	–
[2], first compound 0.06 µg/mL	0.653	0.639	0.605	–	–	–
[2], first compound 0.12 µg/mL	0.453	0.448	0.391	–	–	–
[4], first compound 0.0037 µg/mL	–	–	–	0.978	0.879	0.844
[4], first compound 0.0075 µg/mL	–	–	–	0.92	0.922	0.811
[4], first compound 0.015 µg/mL	–	–	–	0.878	0.872	0.811

Settings	Bliss interaction score
[5]	-0.0331
[6]	0.0189
[7]	-0.14
[8]	0.0634
